Earlier results as cited in patent US20070298000A1, “High SPF transparent or translucent naturally derived, cytoprotective, UV radiation resistant compositions” (priority 2006, published 2007).

Experiments:
[1] = tested on: uterine wet weight, cell height, cell proliferation; conditions: cell proliferation assays

SMILES	effect on growth of cancer cells / activity in cells (cancer cells)	estrogenicity [1]
CCCCC(CC)COC(=O)c1ccc(N(C)C)cc1 (stereo not drawn) [octyl-dimethyl-PABA]	made cancer cells grow more rapidly	–
Cc1ccc(C=C2C(=O)C3(C)CCC2C3(C)C)cc1 (stereo not drawn) [4-methyl-benzylidene camphor, 3-(4-methylbenxylidene) camphor]	made cancer cells grow more rapidly	highly estrogenic
COc1ccc(C(=O)c2ccccc2)c(O)c1 [benzophenone-s]	made cancer cells grow more rapidly	highly estrogenic
CC1CC(OC(=O)c2ccccc2O)CC(C)(C)C1 (stereo not drawn) [homosalate]	made cancer cells grow more rapidly	–
